Laboratory results reported in US8877738B2, “Antipathogenic peptides” (priority 2009, dated 2014).
In brackets after ≈: the same amount, converted by molar mass. Ends that are not written are not given here.

Columns and labels:
HSV-1 = HSV-1 attachment (adsorption) assay on Vero cells; type: cell-based; conditions: compound present during adsorption, 3 h at 4° C., 200 PFU; plaques after 48 h
Method: (§1) FIG. 3. The dendrimeric peptides SB105 and SB105-A10 inhibit HSV-1 and HSV-2 attachment to Vero cells. Pre-chilled Vero cells were incubated at 4° C. with different concentrations of SB105, SB105-A10, SB104 or heparin and with 200 PFU of HSV-1 or HSV-2. Following virus adsorption (3 h at 4° C.), cells were then washed with cold PBS three times to remove compound and unadsorbed viruses, overlaid with medium containing 1.2% methylcellulose and incubated at 37° C. for 48 h. Viral plaques were then stained and counted, and the mean plaque counts for each peptide concentration expressed as a percentage of the mean count of the controls. The data shown represent means±SD of three independent experiments (error bars).
(§2) Following virus adsorption (3 h at 4° C., a condition that is known to allow virus adsorption only), cells were then washed with cold PBS three times to remove compound and unadsorbed viruses, overlaid with medium containing 1.2% methylcellulose and incubated at 37° C. Forty eight hours later, plates were fixed and stained with crystal violet and the viral plaques counted.

HSV-2 = HSV-2 attachment (adsorption) assay on Vero cells; type: cell-based; conditions: compound present during adsorption, 3 h at 4° C., 200 PFU; plaques after 48 h
Method: as §1, §2

HCMV AD169 = test: HCMV attachment (adsorption) assay on HELF cells; type: cell-based; conditions: compound present during adsorption, 3 h at 4° C., 200 PFU AD169; plaques after 6 days
Method: FIG. 6. HCMV adsorption to target cells is inhibited by SB105 and SB105-A10 dendrimeric peptides. Pre-chilled HELF cells were incubated at 4° C. with different concentrations of SB105, SB105-A10, SB104 or heparin and with 200 PFU of HCMV AD169. Following virus adsorption (3 h at 4° C.), cells were washed with cold PBS three times to remove compound and unadsorbed viruses, overlaid with medium containing 1.2% methylcellulose and incubated at 37° C. for 6 days. Viral plaques were then stained and counted and the mean plaque counts for each peptide concentration were expressed as a percentage of the mean count of the controls. The data shown represent means±SD of three independent experiments (error bars).
After 24 h, they were prechilled to 4° C. and incubated in duplicate at 4° C. with different concentrations of SB105, SB105_A10, SB104 (as negative control for inhibition of viral replication) or heparin (as a positive control for inhibition of viral adsorption) and with 200 PFU of HCMV AD169. Following virus adsorption (3 h at 4° C., a condition that is known to allow virus adsorption only), cells were then washed with cold PBS three times to remove compound and unadsorbed viruses, overlaid with medium containing 1.2% methylcellulose and incubated at 37° C. for 6 days. Plates were then fixed and stained with crystal violet and the viral plaques counted.

HIV-1IIIb = HIV-1IIIb replication in C8166 cells (RNA load by real time RT-PCR, p24 ELISA); type: cell-based; conditions: day 7 post-infection, 0.1-20 μg/ml
From the text: FIG. 8: Quantitative real time RT-PCR analysis of HIV-1 RNA load in HIV-1 infected C8166 cell culture supernatants at day 7 post infection. […] The data are reported as means±SD of three independent experiments performed in duplicate.
FIG. 9: ELISA HIV-1 p24 protein analysis in HIV-1 infected C8166 cell culture supernatants at day 7 post infection. […] The data are reported as means±SD of three independent experiments performed in duplicate.
HIV-1 RNA viral load and HIV-1 gag p24 content were determined at day 7 post-infection in the culture supernatants in three independent experiments performed in duplicate. HIV-1 RNA was extracted by Roche high pure viral nucleic acid kit (Roche, Mannheim, Germany) from 200 μl of culture supernatants and then RNA load was assessed by quantitative real time RT-PCR as previously described (Gibellini et al., 2004). In parallel, HIV-1 gag p24 protein amount was determined by ELISA HIV-1 p24 antigen kit (Biomerieux Marcy L'Etoile, France).

[1] = system: HCMV clinical isolate AL1; conditions: HELFs, M.O.I. 1, 6 days p.i.
Method: (§3) FIGS. 4A and 4B. […] HUVECs were infected with the endotheliotropic and clinical HCMV isolate VR1814 (FIG. 4B) at a M.O.I of 1. The extent of AD169 or AU replication was then assessed by titrating the infectivity of supernatants of HELF suspensions by standard plaque assay. The extent of VR1814 replication was measured by titrating the infectivity of supernatants of cell suspensions by the indirect immunoperoxidase staining procedure on HUVECs using a monoclonal antibody (mAb) reactive to the HCMV IE proteins. Plaques were microscopically counted, and the mean plaque counts for each peptide concentration were expressed as a percentage of the mean count of the controls. The number of plaques was plotted as a function of drug concentration, and the concentration producing a 50% reduction in plaque formation (IC50) was determined.
(§4) After 1 hour, they were infected with HCMV AD169 or HCMV AL1 at a M.O.I. of 1 PFU/cell. […] The cells and supernatants from the antiviral assay were then harvested and disrupted by sonication. The extent of virus replication was assessed by titrating the infectivity of supernatants of cell suspensions by standard plaque assay on HELFs.

[2] = system: HCMV laboratory strain AD169; conditions: HELFs, M.O.I. 1, treated 1 h before and during infection, 6 days p.i.
Method: as §3, §4

HCMV VR1814 = conditions: HUVECs, M.O.I. 1, 6 days p.i.
Method: as §3
The cells and supernatants from the antiviral assay were then harvested and disrupted by sonication.

in vitro = conditions: human, 293TT cells
Method: The 293TT cell line derived from human embryonal kidney cells transformed with the SV40 large T antigen was cultured in Dulbecco's modified Eagle's medium (DMEM) (Gibco/BRL, Gaithersburg, Md., USA) supplemented with heat-inactivated 10% bovine serum (Gibco/BRL), Glutamax-I (Invitrogen, Carlsbad, Calif., USA) and nonessential aminoacids. This cell line allows high levels of protein to be expressed from vectors containing the SV40 origin due to overreplication of the expression plasmid (Buck et al., 2004).
Cells were seeded at a density of 5×10^4/well in 24-well plates; the next day they were treated with serially diluted peptides to generate dose-response curves. Forty-eight or 72 h after treatment, cell viability was determined by the 3-(4,5-dimethylthiazol-2-yl)-2,5-diphenyltetrazolium bromide (MTT) method; 50% cytotoxic concentration (CC50) values were determined using Prism.

HPV-16 PsV = conditions: HPV-16-SEAP PsV preincubated with peptide, 293TT cells, 72 h post-infection
From the text: HPV-16 PsV were produced according to previously described methods (Buck et al., 2005). Briefly, 293TT cells were transfected with the plasmid p16sheLL expressing the papillomavirus major and minor capsid proteins (L1 and L2) together with a reporter plasmid expressing the secreted alkaline phosphatase (SEAP) or the green fluorescence protein (GFP) named pYSEAP or pfwB respectively. Capsids were allowed to mature overnight in cell lysate; the clarified supernatant was then loaded on top of a 27-33-39% Optiprep (Sigma-Aldrich, St. Louis, Mo., USA) density gradient at room temperature for 4 h. […] The L1 protein content of PsV stocks was determined by comparison with bovine serum albumin standards in Coomassie-stained SDS-PAGE gels.
For the Secreted Embryonic Alkaline Phosphate (SEAP)-based assays 293TT cells were preplated 3-4 h in advance in 96-well tissue culture-treated flat bottom plates at a density of 30,000 cells/well in 100 μl neutralization buffer (DMEM without phenol red, 10% heat-inactivated FBS, 1% glutamate, 1% nonessential amino acids, 1% penicillin-streptomycin-fungizone, and 10 mM HEPES). […] The SEAP content in the clarified supernatant was determined using a Great ESCAPE SEAP Chemiluminescence Kit (BD Clontech, Mountain View, Calif., USA) as directed by the manufacturer. […]

| Compound | effect on HSV-1 attachment to Vero cells (HSV-1) | effect on HSV-2 attachment to Vero cells (HSV-2) | effect on HCMV attachment (adsorption) to HELF cells (HCMV AD169) | HIV-1 gag p24 content in culture supernatants (HIV-1IIIb; ELISA) | HIV-1 RNA load in culture supernatants (HIV-1IIIb; real time RT-PCR) | IC50, HCMV clinical isolate AL1 replication [1] [µg/mL] | 50% inhibition of HCMV AD169 replication (IC50) [2] [µg/mL] | IC50, endotheliotropic HCMV VR1814 replication (HCMV VR1814) [µg/mL] | CC50 (in vitro) [µg/mL] | IC50 against HPV-16 PsV (HPV-16 PsV) [µg/mL] |
| --- | --- | --- | --- | --- | --- | --- | --- | --- | --- | --- |
| heparin | prevented virus adsorption | prevented virus adsorption | prevented virus adsorption | – | – | – | – | – | – | – |
| (NKKIRVRL)4-Lys2-Lys-β-Ala (also: tetramer on Lys2-Lys-β-Ala core) [SB104] | did not significantly reduce | did not significantly reduce | did not significantly reduce | did not induce significant inhibition | did not induce significant inhibition | – | – | – | – | – |
| CC[C@H](C)[C@H](NC(=O)[C@H](CCCNC(=N)N)NC(=O)[C@@H](NC(=O)[C@H](CCCNC(=N)N)NC(=O)[C@H](CC(C)C)NC(=O)[C@H](CO)NC(=O)[C@H](C)N)C(C)C)C(=O)N[C@@H](CCCCN)C(=O)N[C@@H](CCCCN)C(=O)N[C@@H](CCC(N)=O)C(=O)NCCCC[C@H](NC(=O)[C@H](CCC(N)=O)NC(=O)[C@H](CCCCN)NC(=O)[C@H](CCCCN)NC(=O)[C@@H](NC(=O)[C@H](CCCNC(=N)N)NC(=O)[C@@H](NC(=O)[C@H](CCCNC(=N)N)NC(=O)[C@H](CC(C)C)NC(=O)[C@H](CO)NC(=O)[C@H](C)N)C(C)C)[C@@H](C)CC)C(=O)NCCCC[C@H](NC(=O)[C@H](CCCCNC(=O)[C@H](CCC(N)=O)NC(=O)[C@H](CCCCN)NC(=O)[C@H](CCCCN)NC(=O)[C@@H](NC(=O)[C@H](CCCNC(=N)N)NC(=O)[C@@H](NC(=O)[C@H](CCCNC(=N)N)NC(=O)[C@H](CC(C)C)NC(=O)[C@H](CO)NC(=O)[C@H](C)N)C(C)C)[C@@H](C)CC)NC(=O)[C@H](CCC(N)=O)NC(=O)[C@H](CCCCN)NC(=O)[C@H](CCCCN)NC(=O)[C@@H](NC(=O)[C@H](CCCNC(=N)N)NC(=O)[C@@H](NC(=O)[C@H](CCCNC(=N)N)NC(=O)[C@H](CC(C)C)NC(=O)[C@H](CO)NC(=O)[C@H](C)N)C(C)C)[C@@H](C)CC)C(=O)NCCC(N)=O [SB105, (ASLRVRIKKQ)4-Lys2-Lys-β-Ala] | – | – | – | – | – | 1.2 (≈ 0.231 µM) | 1.17 | 1.1 (≈ 0.212 µM) | > 100 | 11.6 (≈ 2.23 µM) |
